Assay results: the CheMixHub viscosity set

Test: xn = mol fraction of the nth substance listed

C=CC#N + CC(=O)N(C)C
303.15 K, 101.3 kPa
Conditions | viscosity [mPa·s]
x1 = 0.0998 | 0.8246
x1 = 0.1982 | 0.7637
x1 = 0.297 | 0.7048
x1 = 0.3941 | 0.6449
x1 = 0.5009 | 0.5797
x1 = 0.5995 | 0.5228
x1 = 0.6984 | 0.4682
x1 = 0.7976 | 0.4132
x1 = 0.9005 | 0.3591

C=CC#N + CCOC(C)=O
viscosity [mPa·s]
Conditions | 298.15 K | 303.15 K | 308.15 K
101.3 kPa, x1 = 0.0974 | – | 0.3987 | –
101.3 kPa, x1 = 0.201 | – | 0.394 | –
101.3 kPa, x1 = 0.302 | – | 0.3883 | –
101.3 kPa, x1 = 0.3997 | – | 0.3824 | –
101.3 kPa, x1 = 0.4964 | – | 0.3739 | –
101.3 kPa, x1 = 0.5946 | – | 0.3654 | –
101.3 kPa, x1 = 0.6974 | – | 0.3546 | –
101.3 kPa, x1 = 0.7978 | – | 0.3413 | –
101.3 kPa, x1 = 0.9018 | – | 0.3263 | –
101.33 kPa, x1 = 0.1002 | 0.442 | 0.419 | 0.398
101.33 kPa, x1 = 0.2025 | 0.429 | 0.403 | 0.383
101.33 kPa, x1 = 0.3034 | 0.42 | 0.397 | 0.377
101.33 kPa, x1 = 0.4047 | 0.408 | 0.387 | 0.369
101.33 kPa, x1 = 0.5034 | 0.4 | 0.379 | 0.361
101.33 kPa, x1 = 0.5994 | 0.39 | 0.368 | 0.352
101.33 kPa, x1 = 0.7007 | 0.381 | 0.364 | 0.351
101.33 kPa, x1 = 0.8021 | 0.369 | 0.358 | 0.344
101.33 kPa, x1 = 0.9003 | 0.358 | 0.349 | 0.328

C=CC#N + CCC(=O)c1ccccc1
308.15 K, 101 kPa
Conditions | viscosity [mPa·s]
x2 = 0.1051 | 0.405
x2 = 0.1752 | 0.4545
x2 = 0.2496 | 0.513
x2 = 0.3126 | 0.5731
x2 = 0.4246 | 0.6893
x2 = 0.5385 | 0.8078
x2 = 0.6672 | 0.9571
x2 = 0.8184 | 1.161

FC(F)(F)c1ccccc1 + CC(Cl)(Cl)Cl
298.15 K, 101.33 kPa
Conditions | viscosity [mPa·s]
x2 = 0.103 | 0.5617
x2 = 0.201 | 0.572
x2 = 0.301 | 0.5865
x2 = 0.402 | 0.6017
x2 = 0.502 | 0.6199
x2 = 0.602 | 0.6413
x2 = 0.701 | 0.6677
x2 = 0.8 | 0.7
x2 = 0.85 | 0.7179

Cn1ccnc1 + CCOC(C)=O
viscosity [mPa·s], 101 kPa
Conditions | 298.15 K | 308.15 K | 318.15 K
x1 = 0.0518 | 0.4901 | 0.4509 | 0.417
x1 = 0.1042 | 0.5183 | 0.4734 | 0.4355
x1 = 0.2036 | 0.5796 | 0.524 | 0.4789
x1 = 0.3106 | 0.661 | 0.5919 | 0.5383
x1 = 0.4006 | 0.7306 | 0.6504 | 0.587
x1 = 0.4976 | 0.826 | 0.7281 | 0.6494
x1 = 0.6011 | 0.9571 | 0.8342 | 0.7376
x1 = 0.6961 | 1.09 | 0.9437 | 0.8289
x1 = 0.8012 | 1.266 | 1.082 | 0.9423
x1 = 0.9 | 1.468 | 1.245 | 1.074
x1 = 0.9496 | 1.57 | 1.331 | 1.144

C=CC#N + CCC(C)O
viscosity [mPa·s], 101.33 kPa
Conditions | x1 = 0.1033 | x1 = 0.2014 | x1 = 0.301 | x1 = 0.4055 | x1 = 0.5087 | x1 = 0.6049 | x1 = 0.7009 | x1 = 0.803 | x1 = 0.8992
298.15 K | 1.828 | 1.319 | 0.99 | 0.775 | 0.63 | 0.536 | 0.456 | 0.418 | 0.378
303.15 K | 1.567 | 1.165 | 0.887 | 0.704 | 0.582 | 0.499 | 0.438 | 0.391 | 0.358
308.15 K | 1.361 | 1.024 | 0.799 | 0.644 | 0.539 | 0.465 | 0.413 | 0.373 | 0.342

CC(=O)[O-].CCCC[NH3+] + O
Conditions | viscosity [mPa·s]
293.15 K, 101 kPa, x1 = 0.4013 | 53.35
